How the values were obtained:
[1] = xn = mol fraction of the nth substance listed; details: 101 kPa, Liquid
[2] = 101 kPa, Liquid

CN1CCCC1=O [N-methylpyrrolidone] + c1ccccc1
[1]
Details | mass density, 303.15 K [kg/m3] | mass density, 313.15 K [kg/m3] | mass density, 323.15 K [kg/m3] | mass density, 333.15 K [kg/m3] | mass density, 343.15 K [kg/m3] | viscosity, 303.15 K [mPa·s] | viscosity, 313.15 K [mPa·s] | viscosity, 323.15 K [mPa·s] | viscosity, 333.15 K [mPa·s] | viscosity, 343.15 K [mPa·s]
x2 = 0 | 1023.47 | 1014.55 | 1005.66 | 996.71 | 987.75 | 1.554 | 1.332 | 1.16 | 1.022 | 0.908
x2 = 0.1239 | 1008.67 | 999.64 | 990.6 | 981.51 | 972.41 | 1.357 | 1.163 | 1.015 | 0.895 | 0.797
x2 = 0.2409 | 993.24 | 984.1 | 974.95 | 965.76 | 956.53 | 1.222 | 1.049 | 0.915 | 0.807 | 0.712
x2 = 0.3523 | 978.06 | 968.78 | 959.51 | 950.17 | 940.78 | 1.102 | 0.952 | 0.834 | 0.735 | 0.656
x2 = 0.4584 | 962.87 | 953.43 | 943.96 | 934.42 | 924.85 | 0.991 | 0.858 | 0.753 | 0.665 | 0.593
x2 = 0.5594 | 947.6 | 937.99 | 928.33 | 918.6 | 908.82 | 0.899 | 0.779 | 0.684 | 0.604 | 0.539
x2 = 0.6557 | 931.99 | 922.17 | 912.31 | 902.36 | 892.35 | 0.809 | 0.703 | 0.62 | 0.548 | 0.491
x2 = 0.7476 | 916.33 | 906.29 | 896.21 | 886.02 | 875.8 | 0.729 | 0.636 | 0.56 | 0.498 | 0.447
x2 = 0.8354 | 900.43 | 890.16 | 879.84 | 869.42 | 858.93 | 0.655 | 0.573 | 0.505 | 0.451 | 0.405
x2 = 0.9195 | 884.33 | 873.83 | 863.26 | 852.58 | 841.81 | 0.585 | 0.519 | 0.458 | 0.41 | 0.369

c1ccccc1 [benzene]
[2]
Details | mass density [kg/m3] | viscosity [mPa·s]
303.15 K | 868.21 | 0.561
313.15 K | 857.46 | 0.493
323.15 K | 846.65 | 0.436
333.15 K | 835.72 | 0.388
343.15 K | 824.87 | 0.345

c1ccccc1 [benzene] + CN1CCCC1=O
[1], x1 = 1
Details | mass density [kg/m3] | viscosity [mPa·s]
303.15 K | 868.21 | 0.561
313.15 K | 857.46 | 0.493
323.15 K | 846.65 | 0.436
333.15 K | 835.72 | 0.388
343.15 K | 824.87 | 0.345

C1CCCCC1 [cyclohexane]
[2]
Details | mass density [kg/m3] | viscosity [mPa·s]
303.15 K | 769.1 | 0.821
313.15 K | 759.6 | 0.696
323.15 K | 749.98 | 0.598
333.15 K | 740.23 | 0.52

C1CCCCC1 [cyclohexane] + CN1CCCC1=O
[1], x1 = 1
Details | mass density [kg/m3] | viscosity [mPa·s]
303.15 K | 769.1 | 0.821
313.15 K | 759.6 | 0.696
323.15 K | 749.98 | 0.598
333.15 K | 740.23 | 0.52

Cc1ccccc1 [toluene]
[2]
Details | mass density [kg/m3] | viscosity [mPa·s]
303.15 K | 858.32 | 0.525
313.15 K | 848.92 | 0.47
323.15 K | 839.45 | 0.423
333.15 K | 829.93 | 0.385
343.15 K | 820.3 | 0.35
353.15 K | 810.54 | 0.323

Cc1ccccc1 [toluene] + CN1CCCC1=O
[1], x1 = 1
Details | mass density [kg/m3] | viscosity [mPa·s]
303.15 K | 858.32 | 0.525
313.15 K | 848.92 | 0.47
323.15 K | 839.45 | 0.423
333.15 K | 829.93 | 0.385
343.15 K | 820.3 | 0.35
353.15 K | 810.54 | 0.323

— the NIST ThermoML archive (doi:10.1016/j.jct.2006.06.005)
